Experimental data: ChEMBL document CHEMBL3045941, “-Methyl as a bioisostere for the oxygen link between the aromatic rings of aryloxyphenoxypropionate herbicides” (Bioorg Med Chem Lett, 1997)
Activity calls are given as the source filed them. No cut-off for these calls is given here.

Key:
[1] = target: Acetyl-CoA carboxylase (Hordeum vulgare) (UniProt Q3V4F7+Q3V4I7+Q947J4+Q947J5+Q40010+Q5S741+Q5S747); experiment: Inhibition of acetyl-CoA carboxylase in Hordeum vulgare (barley) leaves; type: protein assay
Echinochloa crus-galli [2] = experiment: Post-emergent herbicidal activity against Echinochloa crus-galli (barnyard grass) at <2 g/ha measured after 13 days under green house conditions; type: functional, organism-based
Echinochloa crus-galli [3] = experiment: Post-emergent herbicidal activity against Echinochloa crus-galli (barnyard grass) at 12.5 g/ha measured after 13 days under green house conditions; type: functional
Echinochloa crus-galli [4] = experiment: Post-emergent herbicidal activity against Echinochloa crus-galli (barnyard grass) at 50 g/ha measured after 13 days under green house conditions; type: functional
Setaria viridis [5] = experiment: Post-emergent herbicidal activity against Setaria viridis (green foxtail) at 12.5 g/ha measured after 13 days under green house conditions; type: functional
Setaria viridis [6] = experiment: Post-emergent herbicidal activity against Setaria viridis (green foxtail) at <2 g/ha measured after 13 days under green house conditions; type: functional, organism-based
Setaria viridis [7] = experiment: Post-emergent herbicidal activity against Setaria viridis (green foxtail) at 50 g/ha measured after 13 days under green house conditions; type: functional
Sorghum halepense [8] = experiment: Post-emergent herbicidal activity against Sorghum halepense (Johnson grass) at 50 g/ha measured after 13 days under green house conditions; type: functional
Avena fatua [9] = experiment: Post-emergent herbicidal activity against Avena fatua at <2 g/ha measured after 13 days under green house conditions; type: functional, organism-based
Avena fatua [10] = experiment: Post-emergent herbicidal activity against Avena fatua at 12.5 g/ha measured after 13 days under green house conditions; type: functional
Avena fatua [11] = experiment: Post-emergent herbicidal activity against Avena fatua at 50 g/ha measured after 13 days under green house conditions; type: functional
Triticum aestivum [12] = experiment: Phytotoxicity against Triticum aestivum (wheat) at two to four-leaf growth stage at <2 g/ha measured after 13 days under green house conditions; type: organism-based; conditions: in vivo, 312 h
Triticum aestivum [13] = experiment: Phytotoxicity against Triticum aestivum (wheat) at two to four-leaf growth stage at 12.5 g/ha measured after 13 days under green house conditions; type: organism-based; conditions: in vivo, 312 h
Triticum aestivum [14] = experiment: Phytotoxicity against Triticum aestivum (wheat) at two to four-leaf growth stage at 50 g/ha measured after 13 days under green house conditions; type: organism-based; conditions: in vivo, 312 h
Oryza sativa [15] = experiment: Phytotoxicity against Oryza sativa (rice) plant at two to four-leaf growth stage at <2 g/ha measured after 13 days under green house conditions; type: organism-based; conditions: in vivo, 312 h
Sorghum halepense [16] = experiment: Post-emergent herbicidal activity against Sorghum halepense (Johnson grass) at <2 g/ha measured after 13 days under green house conditions; type: functional, organism-based
Sorghum halepense [17] = experiment: Post-emergent herbicidal activity against Sorghum halepense (Johnson grass) at 12.5 g/ha measured after 13 days under green house conditions; type: functional
Oryza sativa [18] = experiment: Phytotoxicity against Oryza sativa (rice) plant at two to four-leaf growth stage at 12.5 g/ha measured after 13 days under green house conditions; type: organism-based; conditions: in vivo, 312 h
Oryza sativa [19] = experiment: Phytotoxicity against Oryza sativa (rice) plant at two to four-leaf growth stage at 50 g/ha measured after 13 days under green house conditions; type: organism-based; conditions: in vivo, 312 h
Zea mays [20] = experiment: Phytotoxicity against Zea mays (maize) plant at two to four-leaf growth stage at <2 g/ha measured after 13 days under green house conditions; type: organism-based; conditions: in vivo, 312 h
Zea mays [21] = experiment: Phytotoxicity against Zea mays (maize) plant at two to four-leaf growth stage at 12.5 g/ha measured after 13 days under green house conditions; type: organism-based; conditions: in vivo, 312 h
Zea mays [22] = experiment: Phytotoxicity against Zea mays (maize) plant at two to four-leaf growth stage at 50 g/ha measured after 13 days under green house conditions; type: organism-based; conditions: in vivo, 312 h
Echinochloa crus-galli [23] = experiment: Post-emergent herbicidal activity against Echinochloa crus-galli (barnyard grass) at 100 g/ha measured after 13 days under green house conditions; type: functional
Setaria viridis [24] = experiment: Post-emergent herbicidal activity against Setaria viridis (green foxtail) at 100 g/ha measured after 13 days under green house conditions; type: functional
Sorghum halepense [25] = experiment: Post-emergent herbicidal activity against Sorghum halepense (Johnson grass) at 100 g/ha measured after 13 days under green house conditions; type: functional
Avena fatua [26] = experiment: Post-emergent herbicidal activity against Avena fatua at 100 g/ha measured after 13 days under green house conditions; type: functional
Triticum aestivum [27] = experiment: Phytotoxicity against Triticum aestivum (wheat) at two to four-leaf growth stage at 100 g/ha measured after 13 days under green house conditions; type: organism-based; conditions: in vivo, 312 h
Oryza sativa [28] = experiment: Phytotoxicity against Oryza sativa (rice) plant at two to four-leaf growth stage at 100 g/ha measured after 13 days under green house conditions; type: organism-based; conditions: in vivo, 312 h
Zea mays [29] = experiment: Phytotoxicity against Zea mays (maize) plant at two to four-leaf growth stage at 100 g/ha measured after 13 days under green house conditions; type: organism-based; conditions: in vivo, 312 h
Echinochloa crus-galli [30] = experiment: Post-emergent herbicidal activity against Echinochloa crus-galli (barnyard grass) at 250 g/ha measured after 13 days under green house conditions; type: functional
Setaria viridis [31] = experiment: Post-emergent herbicidal activity against Setaria viridis (green foxtail) at 250 g/ha measured after 13 days under green house conditions; type: functional
Avena fatua [32] = experiment: Post-emergent herbicidal activity against Avena fatua at 250 g/ha measured after 13 days under green house conditions; type: functional
Triticum aestivum [33] = experiment: Phytotoxicity against Triticum aestivum (wheat) at two to four-leaf growth stage at 250 g/ha measured after 13 days under green house conditions; type: organism-based; conditions: in vivo, 312 h
Sorghum halepense [34] = experiment: Post-emergent herbicidal activity against Sorghum halepense (Johnson grass) at 250 g/ha measured after 13 days under green house conditions; type: functional
Oryza sativa [35] = experiment: Phytotoxicity against Oryza sativa (rice) plant at two to four-leaf growth stage at 250 g/ha measured after 13 days under green house conditions; type: organism-based; conditions: in vivo, 312 h
Zea mays [36] = experiment: Phytotoxicity against Zea mays (maize) plant at two to four-leaf growth stage at 250 g/ha measured after 13 days under green house conditions; type: organism-based; conditions: in vivo, 312 h

| Compound | Activity (Echinochloa crus-galli [2]) | Activity (Setaria viridis [6]) | Activity (Avena fatua [9]) | Activity (Triticum aestivum [12]) | Activity (Oryza sativa [15]) | Activity (Sorghum halepense [16]) | Activity (Zea mays [20]) | Activity (Echinochloa crus-galli [30]) | Activity (Setaria viridis [31]) | Activity (Avena fatua [32]) | Activity (Triticum aestivum [33]) | Activity (Sorghum halepense [34]) | Activity (Oryza sativa [35]) | Activity (Zea mays [36]) | other results |
| --- | --- | --- | --- | --- | --- | --- | --- | --- | --- | --- | --- | --- | --- | --- | --- |
| CCOC(=O)C(C)Oc1ccc(N(C)c2ncc3cc(Cl)ccc3n2)cc1 (racemic) | inactive | inactive | inactive | Non-toxic | Non-toxic | inactive | Non-toxic | – | – | – | – | – | – | – | Activity [1]: 1.5 µM; Activity (Echinochloa crus-galli [3]): 98%; Activity (Echinochloa crus-galli [4]): 85%; Activity (Setaria viridis [5]): 65%; Activity (Setaria viridis [7]): 98%; Activity (Sorghum halepense [8]): 98%; Activity (Avena fatua [10]): 0%; Activity (Avena fatua [11]): 15%; Activity (Triticum aestivum [13]): 35%; Activity (Triticum aestivum [14]): 65%; Activity (Sorghum halepense [17]): 65%; Activity (Oryza sativa [18]): 0%; Activity (Oryza sativa [19]): 35%; Activity (Zea mays [21]): 15%; Activity (Zea mays [22]): 65% |
| CCOC(=O)C(C)Oc1ccc(N(C)c2nc3ccccc3o2)cc1 (racemic) | inactive | inactive | inactive | Non-toxic | Non-toxic | inactive | Non-toxic | – | – | – | – | – | – | – | Activity (Echinochloa crus-galli [23]): 100%; Activity (Setaria viridis [24]): 85%; Activity (Sorghum halepense [25]): 100%; Activity (Avena fatua [26]): 70%; Activity (Triticum aestivum [27]): 85%; Activity (Oryza sativa [28]): 30%; Activity (Zea mays [29]): 100% |
| COC(=O)C(C)Oc1ccc(N(C)c2ncc(Cl)cn2)cc1 (racemic) | inactive | inactive | inactive | Non-toxic | Non-toxic | inactive | Non-toxic | 100% | 85% | 85% | 85% | 85% | 70% | 85% | – |
| CCOC(=O)C(C)Oc1ccc(Oc2ncc(Cl)cn2)cc1 (racemic) | inactive | inactive | inactive | Non-toxic | Non-toxic | inactive | Non-toxic | 85% | 85% | 85% | 70% | 85% | 70% | 85% | – |
